Assays:
CCRF-CEM = assay: NCI human cancer cell line growth inhibition: CCRF-CEM; assay type: cell-based; conditions: Leukemia
HL-60(TB) = assay: cells; assay type: cell-based, human
K-562 = assay: NCI human cancer cell line growth inhibition: K-562; assay type: cell-based; conditions: K-562, Leukemia
MOLT-4 = assay: NCI human cancer cell line growth inhibition: MOLT-4; assay type: cell-based; conditions: MOLT-4, Leukemia
RPMI-8226 = assay: NCI human cancer cell line growth inhibition: RPMI-8226; assay type: cell-based; conditions: RPMI-8226, Leukemia
SR = assay: NCI human cancer cell line growth inhibition: SR; assay type: cell-based; conditions: Leukemia
A549/ATCC = assay: NCI human cancer cell line growth inhibition: A549/ATCC; assay type: cell-based; conditions: NSC Lung
EKVX = assay: NCI human cancer cell line growth inhibition: EKVX; assay type: cell-based; conditions: NSC Lung
HOP-62 = assay: NCI human cancer cell line growth inhibition: HOP-62; assay type: cell-based; conditions: HOP-62, NSC Lung
HOP-92 = assay: NCI human cancer cell line growth inhibition: HOP-92; assay type: cell-based; conditions: HOP-92, NSC Lung
NCI-H226 = assay type: cell-based, human; conditions: NCI-H226, NSC Lung
NCI-H23 = assay type: cell-based, human; conditions: NCI-H23, NSC Lung
NCI-H460 = assay type: cell-based, human; conditions: NCI-H460, NSC Lung
NCI-H522 = assay type: cell-based, human; conditions: NCI-H522, NSC Lung
COLO 205 = assay: NCI human cancer cell line growth inhibition: COLO 205; assay type: cell-based; conditions: COLO 205, Colon
HCC-2998 = assay: NCI human cancer cell line growth inhibition: HCC-2998; assay type: cell-based; conditions: HCC-2998, Colon
HCT-116 = assay: NCI human cancer cell line growth inhibition: HCT-116; assay type: cell-based; conditions: HCT-116, Colon
HCT-15 = assay: NCI human cancer cell line growth inhibition: HCT-15; assay type: cell-based; conditions: HCT-15, Colon
HT29 = assay: NCI human cancer cell line growth inhibition: HT29; assay type: cell-based; conditions: HT29, Colon
KM12 = assay: NCI human cancer cell line growth inhibition: KM12; assay type: cell-based; conditions: KM12, Colon
SW-620 = assay: NCI human cancer cell line growth inhibition: SW-620; assay type: cell-based; conditions: SW-620, Colon
SF-268 = assay: NCI human cancer cell line growth inhibition: SF-268; assay type: cell-based; conditions: SF-268, CNS
SF-295 = assay: NCI human cancer cell line growth inhibition: SF-295; assay type: cell-based; conditions: SF-295, CNS
SF-539 = assay: NCI human cancer cell line growth inhibition: SF-539; assay type: cell-based; conditions: SF-539, CNS
SNB-19 = assay: NCI human cancer cell line growth inhibition: SNB-19; assay type: cell-based; conditions: SNB-19, CNS
SNB-75 = assay: NCI human cancer cell line growth inhibition: SNB-75; assay type: cell-based; conditions: SNB-75, CNS
U251 = assay: NCI human cancer cell line growth inhibition: U251; assay type: cell-based; conditions: U251, CNS
PC-3 = assay: NCI human cancer cell line growth inhibition: PC-3; assay type: cell-based; conditions: PC-3, Prostate
DU-145 = assay: NCI human cancer cell line growth inhibition: DU-145; assay type: cell-based; conditions: DU-145, Prostate
LOX IMVI = assay: NCI human cancer cell line growth inhibition: LOX IMVI; assay type: cell-based; conditions: Melanoma
MALME-3M = assay: NCI human cancer cell line growth inhibition: MALME-3M; assay type: cell-based; conditions: Melanoma
MI4 = assay: NCI human cancer cell line growth inhibition: MI4; assay type: cell-based; conditions: MI4, Melanoma
SK-MEL-2 = assay: NCI human cancer cell line growth inhibition: SK-MEL-2; assay type: cell-based; conditions: SK-MEL-2, Melanoma
SK-MEL-28 = assay: NCI human cancer cell line growth inhibition: SK-MEL-28; assay type: cell-based; conditions: SK-MEL-28, Melanoma
SK-MEL-5 = assay: NCI human cancer cell line growth inhibition: SK-MEL-5; assay type: cell-based; conditions: SK-MEL-5, Melanoma
UACC-257 = assay: NCI human cancer cell line growth inhibition: UACC-257; assay type: cell-based; conditions: UACC-257, Melanoma
UACC-62 = assay: NCI human cancer cell line growth inhibition: UACC-62; assay type: cell-based; conditions: UACC-62, Melanoma
IGROVI = assay: NCI human cancer cell line growth inhibition: IGROVI; assay type: cell-based; conditions: Ovarian
OVCAR-3 = assay: NCI human cancer cell line growth inhibition: OVCAR-3; assay type: cell-based; conditions: OVCAR-3, Ovarian
OVCAR-4 = assay: NCI human cancer cell line growth inhibition: OVCAR-4; assay type: cell-based; conditions: OVCAR-4, Ovarian
OVCAR-5 = assay: NCI human cancer cell line growth inhibition: OVCAR-5; assay type: cell-based; conditions: OVCAR-5, Ovarian
OVCAR-8 = assay: NCI human cancer cell line growth inhibition: OVCAR-8; assay type: cell-based; conditions: OVCAR-8, Ovarian
SK-OV-3 = assay: NCI human cancer cell line growth inhibition: SK-OV-3; assay type: cell-based; conditions: SK-OV-3, Ovarian
786-0 = assay: NCI human cancer cell line growth inhibition: 786-0; assay type: cell-based; conditions: 786-0, Renal
A498 = assay: NCI human cancer cell line growth inhibition: A498; assay type: cell-based; conditions: A498, Renal
ACHN = assay: NCI human cancer cell line growth inhibition: ACHN; assay type: cell-based; conditions: Renal
CAKI-1 = assay: NCI human cancer cell line growth inhibition: CAKI-1; assay type: cell-based; conditions: CAKI-1, Renal
RXF-393 = assay: NCI human cancer cell line growth inhibition: RXF-393; assay type: cell-based; conditions: RXF-393, Renal
SN12C = assay: NCI human cancer cell line growth inhibition: SN12C; assay type: cell-based; conditions: Renal
TK-10 = assay: NCI human cancer cell line growth inhibition: TK-10; assay type: cell-based; conditions: TK-10, Renal
UO-31 = assay: NCI human cancer cell line growth inhibition: UO-31; assay type: cell-based; conditions: UO-31, Renal
MCF7 = assay: NCI human cancer cell line growth inhibition: MCF7; assay type: cell-based; conditions: MCF7, Breast
NCI/ADR-RES = assay type: cell-based, human; conditions: Breast
MDA-MB-231/ATCC = assay: NCI human cancer cell line growth inhibition: MDA-MB-231/ATCC; assay type: cell-based; conditions: Breast
MDA-MB-435 = assay: NCI human cancer cell line growth inhibition: MDA-MB-435; assay type: cell-based; conditions: MDA-MB-435, Breast
MDA-N = assay: NCI human cancer cell line growth inhibition: MDA-N; assay type: cell-based; conditions: Breast
BT-549 = assay: NCI human cancer cell line growth inhibition: BT-549; assay type: cell-based; conditions: BT-549, Breast
T-47D = assay: NCI human cancer cell line growth inhibition: T-47D; assay type: cell-based; conditions: Breast
HS 578T = assay: NCI human cancer cell line growth inhibition: HS 578T; assay type: cell-based; conditions: Breast

SMILES: CCC/C=C/C=C/C(=O)O[C@H]1/C(=C/C(=O)OC)C[C@H]2C[C@H]([C@@H](C)O)OC(=O)C[C@H](O)C[C@@H]3C[C@H](OC(C)=O)C(C)(C)[C@](O)(C[C@@H]4C/C(=C/C(=O)OC)C[C@H](/C=C/C(C)(C)[C@]1(O)O2)O4)O3 [Bryo-1, reference compound]
- Growth inhibition (GI50) (CCRF-CEM): −5.30 log of molar concentration
- Growth inhibition (GI50) (HL-60(TB)): −5.70 log of molar concentration
- Growth inhibition (GI50) (K-562): −5.40 log of molar concentration
- Growth inhibition (GI50) (MOLT-4): −5.50 log of molar concentration
- Growth inhibition (GI50) (RPMI-8226): >−5 log of molar concentration
- Growth inhibition (GI50) (SR): >−5 log of molar concentration
- Growth inhibition (GI50) (A549/ATCC): −5.20 log of molar concentration
- Growth inhibition (GI50) (EKVX): −5.30 log of molar concentration
- Growth inhibition (GI50) (HOP-62): >−5 log of molar concentration
- Growth inhibition (GI50) (HOP-92): −5.30 log of molar concentration
- Growth inhibition (GI50) (NCI-H226): >−5 log of molar concentration
- Growth inhibition (GI50) (NCI-H23): >−5 log of molar concentration
- Growth inhibition (GI50) (NCI-H460): −5.60 log of molar concentration
- Growth inhibition (GI50) (NCI-H522): >−5 log of molar concentration
- Growth inhibition (GI50) (COLO 205): −5.40 log of molar concentration
- Growth inhibition (GI50) (HCC-2998): −5.30 log of molar concentration
- Growth inhibition (GI50) (HCT-116): −5.30 log of molar concentration
- Growth inhibition (GI50) (HCT-15): >−5 log of molar concentration
- Growth inhibition (GI50) (HT29): −5.30 log of molar concentration
- Growth inhibition (GI50) (KM12): −5.20 log of molar concentration
- Growth inhibition (GI50) (SW-620): −5.50 log of molar concentration
- Growth inhibition (GI50) (SF-268): −5.10 log of molar concentration
- Growth inhibition (GI50) (SF-295): −5.20 log of molar concentration
- Growth inhibition (GI50) (SF-539): >−5 log of molar concentration
- Growth inhibition (GI50) (SNB-19): >−5 log of molar concentration
- Growth inhibition (GI50) (SNB-75): −5.50 log of molar concentration
- Growth inhibition (GI50) (U251): −5.10 log of molar concentration
- Growth inhibition (GI50) (PC-3): −5.30 log of molar concentration
- Growth inhibition (GI50) (DU-145): >−5 log of molar concentration
- Growth inhibition (GI50) (LOX IMVI): −5.10 log of molar concentration
- Growth inhibition (GI50) (MALME-3M): −5.20 log of molar concentration
- Growth inhibition (GI50) (MI4): >−5 log of molar concentration
- Growth inhibition (GI50) (SK-MEL-2): −5.20 log of molar concentration
- Growth inhibition (GI50) (SK-MEL-28): −5.10 log of molar concentration
- Growth inhibition (GI50) (SK-MEL-5): −5.70 log of molar concentration
- Growth inhibition (GI50) (UACC-257): −5.10 log of molar concentration
- Growth inhibition (GI50) (UACC-62): −5.30 log of molar concentration
- Growth inhibition (GI50) (IGROVI): −5.30 log of molar concentration
- Growth inhibition (GI50) (OVCAR-3): −5.10 log of molar concentration
- Growth inhibition (GI50) (OVCAR-4): −5.50 log of molar concentration
- Growth inhibition (GI50) (OVCAR-5): >−5 log of molar concentration
- Growth inhibition (GI50) (OVCAR-8): −5.10 log of molar concentration
- Growth inhibition (GI50) (SK-OV-3): −5.10 log of molar concentration
- Growth inhibition (GI50) (786-0): −5.20 log of molar concentration
- Growth inhibition (GI50) (A498): >−5 log of molar concentration
- Growth inhibition (GI50) (ACHN): −5.50 log of molar concentration
- Growth inhibition (GI50) (CAKI-1): −5.40 log of molar concentration
- Growth inhibition (GI50) (RXF-393): −5.30 log of molar concentration
- Growth inhibition (GI50) (SN12C): −5.10 log of molar concentration
- Growth inhibition (GI50) (TK-10): >−5 log of molar concentration
- Growth inhibition (GI50) (UO-31): −5.60 log of molar concentration
- Growth inhibition (GI50) (MCF7): −5.20 log of molar concentration
- Growth inhibition (GI50) (NCI/ADR-RES): >−5 log of molar concentration
- Growth inhibition (GI50) (MDA-MB-231/ATCC): −5.20 log of molar concentration
- Growth inhibition (GI50) (MDA-MB-435): −5.10 log of molar concentration
- Growth inhibition (GI50) (MDA-N): −5.10 log of molar concentration
- Growth inhibition (GI50) (BT-549): −5.10 log of molar concentration
- Growth inhibition (GI50) (T-47D): −5.20 log of molar concentration
- Growth inhibition (GI50) (HS 578T): −5.2 log of molar concentration
